Usually EC50 stands for the concentration that produces a half-maximal response. Low values mean a more potent agent, high ones a less potent agent.

Structures are written as SMILES.

α4β7 integrin, sequence (P13612 34-1032): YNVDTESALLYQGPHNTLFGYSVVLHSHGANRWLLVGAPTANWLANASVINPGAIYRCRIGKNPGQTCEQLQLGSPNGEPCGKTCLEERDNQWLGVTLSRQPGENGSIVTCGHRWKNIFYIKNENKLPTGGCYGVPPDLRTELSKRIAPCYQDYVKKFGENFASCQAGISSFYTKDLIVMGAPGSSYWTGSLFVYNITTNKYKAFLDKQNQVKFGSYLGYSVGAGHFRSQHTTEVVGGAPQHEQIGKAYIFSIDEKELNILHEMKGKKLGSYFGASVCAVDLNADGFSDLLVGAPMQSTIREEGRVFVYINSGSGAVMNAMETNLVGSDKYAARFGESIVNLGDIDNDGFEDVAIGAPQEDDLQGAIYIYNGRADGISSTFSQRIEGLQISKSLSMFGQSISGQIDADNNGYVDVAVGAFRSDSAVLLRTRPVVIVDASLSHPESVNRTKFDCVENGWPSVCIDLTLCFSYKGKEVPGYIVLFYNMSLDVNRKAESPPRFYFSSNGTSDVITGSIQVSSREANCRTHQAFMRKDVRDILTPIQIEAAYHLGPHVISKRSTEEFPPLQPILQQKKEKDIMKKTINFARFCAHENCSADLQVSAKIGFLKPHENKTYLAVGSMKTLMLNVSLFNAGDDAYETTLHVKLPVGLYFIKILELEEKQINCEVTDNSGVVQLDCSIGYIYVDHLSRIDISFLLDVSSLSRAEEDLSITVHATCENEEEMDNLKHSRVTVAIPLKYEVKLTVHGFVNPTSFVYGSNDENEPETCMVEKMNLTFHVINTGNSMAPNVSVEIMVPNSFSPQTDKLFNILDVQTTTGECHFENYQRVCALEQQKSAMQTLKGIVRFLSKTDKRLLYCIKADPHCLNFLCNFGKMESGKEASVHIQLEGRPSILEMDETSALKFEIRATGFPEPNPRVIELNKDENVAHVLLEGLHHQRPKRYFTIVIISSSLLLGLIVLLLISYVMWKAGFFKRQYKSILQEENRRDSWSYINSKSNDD
α4β7 integrin, sequence (P26010 20-798): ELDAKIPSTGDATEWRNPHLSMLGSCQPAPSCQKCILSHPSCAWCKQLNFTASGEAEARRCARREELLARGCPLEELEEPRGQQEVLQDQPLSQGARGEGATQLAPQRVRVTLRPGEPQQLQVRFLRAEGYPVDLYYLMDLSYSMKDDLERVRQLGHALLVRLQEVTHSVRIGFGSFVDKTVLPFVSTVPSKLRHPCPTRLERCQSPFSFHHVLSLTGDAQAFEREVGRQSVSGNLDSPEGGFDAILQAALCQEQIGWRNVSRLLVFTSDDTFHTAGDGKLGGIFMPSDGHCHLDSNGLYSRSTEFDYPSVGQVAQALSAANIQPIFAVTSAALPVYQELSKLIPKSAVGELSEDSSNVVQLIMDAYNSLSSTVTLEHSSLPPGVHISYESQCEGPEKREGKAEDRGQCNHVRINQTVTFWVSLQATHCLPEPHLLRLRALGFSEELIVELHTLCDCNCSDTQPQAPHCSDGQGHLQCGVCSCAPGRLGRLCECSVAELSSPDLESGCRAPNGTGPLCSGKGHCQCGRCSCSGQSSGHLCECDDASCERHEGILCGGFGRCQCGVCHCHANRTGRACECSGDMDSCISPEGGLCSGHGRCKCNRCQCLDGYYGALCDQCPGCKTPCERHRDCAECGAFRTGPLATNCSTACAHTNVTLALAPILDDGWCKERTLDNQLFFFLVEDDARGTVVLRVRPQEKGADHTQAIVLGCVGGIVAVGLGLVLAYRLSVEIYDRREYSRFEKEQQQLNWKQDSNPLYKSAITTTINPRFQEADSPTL

The first assay deals with α4β7 integrin (Homo sapiens (Human), UniProt P13612+P26010). Kind of assay: α4β7 Integrin Cell Capture Assay. Type of assay: cell-based. As to conditions: RPMI8866 cells captured on MadCAM-1 extracellular domain-coated plate. The method, then:
α4β7 Integrin Cell Capture Assay
The potency of inhibitors in preventing α4β7 integrin interaction with MadCAM-1 was measured by monitoring the capture of α4β7 integrin expressing cells on a recombinant MadCAM-1 extracellular domain-coated plate. […] The plates were then washed with PBS and blocked with 3% BSA for 2 hours before being washed again.
RPM18866 cells were spun down and re-suspended in assay medium (DMEM+0.5% FBS+0.5 mM MnCl2) at a density of 0.5×10^6 cells/mL. […] The plates were incubated at 37° C. for 1 hour. 50 μL of cells were transferred to the blocked, MadCAM-1-coated plates and incubated for 30 minutes at 37° C. […] The plates were incubated for 90 minutes at room temperature. The plates were then washed 3 times with 70 μL of PBS per well and imaged on a Cellomics ArrayScan instrument. The cells that were bound to the plate were counted and plotted against the compound concentration to determine the EC50 of the test compounds.
The molecule `Cn1c2c(cc(-c3ccc(C[C@H](NC(=O)c4c(F)cc(N5CCOC[C@@H]5C(F)(F)F)cc4F)C(=O)O)c4cccnc34)c1=O)CNCC2` [Example 438] registered an EC50 of 0.291 nM.

`Cc1cc(N2CCOC[C@@H]2C(F)(F)F)cc(F)c1C(=O)N[C@@H](Cc1ccc(-n2c(=O)c3cc(N(C)C)ncc3n(C)c2=O)c2ncccc12)C(=O)O` [Example 416] yielded an EC50 of 0.126 nM.

For `Cc1nc(C)n(C)c(=O)c1-c1ccc(C[C@H](NC(=O)c2c(F)cc(N3CCOC[C@@H]3C(F)(F)F)cc2F)C(=O)O)c2cccnc12` [Example 440], a half-maximal response (EC50) required 0.25 nM.

In turn, `Cc1cc(N2CCOC[C@@H]2C(F)(F)F)cc(F)c1C(=O)N[C@@H](Cc1ccc(-c2c(Cl)cc(C)n(C)c2=O)c2ncccc12)C(=O)O` [Example 449] registered an EC50 of 0.092 nM.

The same assay, now with this note: Table 1; capture of α4β7 expressing RPM18866 cells on MadCAM-1 extracellular domain-coated plate.
For `O=C(N[C@@H](Cc1ccc(-c2ccc(C(F)(F)F)cn2)c2ncccc12)C(=O)O)c1c(F)cc(NS(=O)(=O)c2ccc(-c3ccnc(F)c3)cc2)cc1F` [Example 57, (S)-2-(2,6-difluoro-4-((4-(2-fluoropyridin-4-yl)phenyl)sulfonamido)benzamido)-3-(8-(5-(trifluoromethyl)pyridin-2-yl)quinolin-5-yl)propanoic acid], the EC50 worked out at 30 nM.

As to `N#Cc1ccc(-c2ccc(C[C@H](NC(=O)c3c(F)cc(N4CCC4C(F)(F)F)cc3F)C(=O)O)c3cccnc23)c(Cl)c1` (stereo partly drawn) [Example 78, (2S)-3-(8-(2-chloro-4-cyanophenyl)quinolin-5-yl)-2-(2,6-difluoro-4-(2-(trifluoromethyl)azetidin-1-yl)benzamido)propanoic acid], the EC50 was found to be 134 nM.

For `CC[C@@H](Nc1cc(F)c(C(=O)N[C@@H](Cc2ccc(-c3c(C)c(C)c(C)n(C)c3=O)c3ncccc23)C(=O)O)c(F)c1)C(F)(F)F` [Example 115, (S)-2-(2,6-difluoro-4-(((R)-1,1,1-trifluorobutan-2-yl)amino)benzamido)-3-(8-(1,4,5,6-tetramethyl-2-oxo-1,2-dihydropyridin-3-yl)quinolin-5-yl)propanoic acid], the EC50 was determined as 0.6 nM.

`CC[C@@H](Nc1cc(F)c(C(=O)N[C@@H](Cc2ccc(-c3nccc(OC)c3C(F)(F)F)c3ncccc23)C(=O)O)c(F)c1)C(F)(F)F` [Example 92, (S)-2-(2,6-difluoro-4-(((R)-1,1,1-trifluorobutan-2-yl)amino)benzamido)-3-(8-(4-methoxy-3-(trifluoromethyl)pyridin-2-yl)quinolin-5-yl)propanoic acid] came in with an EC50 of 2 nM.

The molecule `CCOCc1cc(OC)c(-c2ccc(CC(NC(=O)c3c(F)cccc3F)C(=O)O)c3ccc(C(F)(F)F)nc23)c(OC)c1` (centres unmarked) [Example 38, 2-(2,6-difluorobenzamido)-3-(8-(4-(ethoxymethyl)-2,6-dimethoxyphenyl)-2-(trifluoromethyl)quinolin-5-yl)propanoic acid] displayed an EC50 of 29.7 nM.

Consider `N#Cc1ccc(-c2ccc(C[C@H](NC(=O)c3c(F)cc(N[C@H](c4ccccc4)C(F)(F)F)cc3F)C(=O)O)c3cccnc23)c(Cl)c1` [Example 86, (S)-3-(8-(2-chloro-4-cyanophenyl)quinolin-5-yl)-2-(2,6-difluoro-4-(((R)-2,2,2-trifluoro-1-phenylethyl)amino)benzamido)propanoic acid], for which the response was half-maximal at 8.3 nM (EC50).

`COc1cnn(C)c(=O)c1-c1ccc(C[C@H](NC(=O)c2c(F)cccc2F)C(=O)O)c2cccnc12` [Example 70, (S)-2-(2,6-difluorobenzamido)-3-(8-(5-methoxy-2-methyl-3-oxo-2,3-dihydropyridazin-4-yl)quinolin-5-yl)propanoic acid]: it took 10.7 nM to reach a half-maximal effect (EC50).

`CCOCc1cc(OC)c(-c2ccc(C[C@H](NC(=O)c3c(F)cc(C#N)cc3F)C(=O)O)c3cccnc23)c(OC)c1` [Example 42, (S)-2-(4-cyano-2,6-difluorobenzamido)-3-(8-(4-(ethoxymethyl)-2,6-dimethoxyphenyl)quinolin-5-yl)propanoic acid] gave an EC50 of 13.4 nM.

In turn, `CC[C@@H](Nc1cc(F)c(C(=O)N[C@@H](Cc2ccc(-c3c(C(F)(F)F)c4ccncc4n(C)c3=O)c3ncccc23)C(=O)O)c(F)c1)C(F)(F)F` [Example 111, (S)-2-(2,6-difluoro-4-(((R)-1,1,1-trifluorobutan-2-yl)amino)benzamido)-3-(8-(1-methyl-2-oxo-4-(trifluoromethyl)-1,2-dihydro-1,7-naphthyridin-3-yl)quinolin-5-yl)propanoic acid] came in with an EC50 of 0.1 nM.

As for `CS(=O)(=O)Nc1cc(F)c(C(=O)N[C@@H](Cc2ccc(-c3ccc(C#N)cc3Cl)c3ncccc23)C(=O)O)c(F)c1` [Example 45, (S)-3-(8-(2-chloro-4-cyanophenyl)quinolin-5-yl)-2-(2,6-difluoro-4-(methylsulfonamido)benzamido)propanoic acid], the EC50 is 3.4 nM.

In the case of `CC[C@@H](Nc1cc(F)c(C(=O)N[C@@H](Cc2ccc(-c3c(C(F)(F)F)cc(C)n(C)c3=O)c3ncccc23)C(=O)O)c(F)c1)C(F)(F)F` (single isomer, unassigned) [Example 107], the EC50 was 0.2 nM.

Consider `N#Cc1ccc(-c2ccc(C[C@H](NC(=O)c3c(Cl)cccc3Cl)C(=O)O)c3cc(F)cnc23)c(Cl)c1` [Example 30, (S)-3-(8-(2-chloro-4-cyanophenyl)-3-fluoroquinolin-5-yl)-2-(2,6-dichlorobenzamido)propanoic acid], for which the midpoint of the response, the EC50, lay at 16.9 nM.

As for `CC[C@@H](Nc1cc(F)c(C(=O)N[C@@H](Cc2ccc(-c3c(C)n(C)c4ccc(F)cc4c3=O)c3ncccc23)C(=O)O)c(F)c1)C(F)(F)F` [Example 127, (S)-2-(2,6-difluoro-4-(((R)-1,1,1-trifluorobutan-2-yl)amino)benzamido)-3-(6-fluoro-1,2-dimethyl-4-oxo-1,4-dihydro-[3,8′-biquinolin]-5′-yl)propanoic acid], the midpoint of the response, the EC50, lay at 9.3 nM.

Still in this assay, the particulars now being: Table 2; capture of α4β7 expressing RPM18866 cells on MadCAM-1 extracellular domain-coated plate.
Molecule `CC[C@@H](Nc1cc(F)c(C(=O)N[C@@H](Cc2ccc(-c3ncc4ccccc4c3C(F)(F)F)c3ncccc23)C(=O)O)c(F)c1)C(F)(F)F` [Example 276] gave an EC50 of 4.9 nM.

Molecule `COc1c(-c2ccc(C[C@H](NC(=O)c3c(F)cc(N[C@H](C)C(F)(F)F)cc3F)C(=O)O)c3cccnc23)c(=O)n(C)c2ccccc12` [Example 156] displayed an EC50 of 0.3 nM.

Take `Cc1ccnc(-c2ccc(C[C@H](NC(=O)c3c(F)cc(N4CCOC[C@@H]4C(F)(F)F)cc3F)C(=O)O)c3cccnc23)c1N(C)C` [Example 212]: the half-maximal effective concentration (EC50) turned out to be 1.9 nM.

With `O=C(N[C@@H](Cc1ccc(-c2c(Cl)cc(F)cc2OC(F)F)c2ncccc12)C(=O)O)c1c(F)cccc1F` [Example 149], a half-maximal response (EC50) required 50.3 nM.

Regarding `CC[C@@H](Nc1cc(F)c(C(=O)N[C@@H](Cc2ccc(-c3ncccc3N(C)C)c3ncccc23)C(=O)O)c(F)c1)C(F)(F)F` [Example 315], a half-maximal response (EC50) required 13.6 nM.

In the case of `CC[C@@H](Nc1cc(F)c(C(=O)N[C@@H](Cc2ccc(-c3c(C)c(C(F)(F)F)cn(C)c3=O)c3ncccc23)C(=O)O)c(F)c1)C(F)(F)F` [Example 188], the EC50 is 1.2 nM.

`Nc1ccc(C(F)(F)F)c(-c2ccc(C[C@H](NC(=O)c3c(F)cc(N4CCOC[C@@H]4C(F)(F)F)cc3F)C(=O)O)c3cccnc23)n1` [Example 194] returned an EC50 of 1.4 nM.

In turn, `N#Cc1ccc(-c2ccc(C[C@H](NC(=O)c3c(F)cc(N4CCCCC4)cc3F)C(=O)O)c3cccnc23)c(Cl)c1` [Example 278] gave an EC50 of 82.2 nM.

As for `Cn1c(=O)c(-c2ccc(C[C@H](NC(=O)c3c(F)cc(NS(=O)(=O)C(F)F)cc3F)C(=O)O)c3cccnc23)cc2ccccc21` [Example 153], the EC50 is 0.2 nM.

With `CC[C@@H](Nc1cc(F)c(C(=O)N[C@@H](Cc2ccc(-c3ncc(C)cc3N(C)C)c3ncccc23)C(=O)O)c(F)c1)C(F)(F)F` [Example 313], a half-maximal response (EC50) required 13.3 nM.

As for `CC[C@@H](Nc1cc(F)c(C(=O)N[C@@H](Cc2ccc(-c3nc(C)c4ccc(F)cc4n3)c3ncccc23)C(=O)O)c(F)c1)C(F)(F)F` [Example 258], the EC50 worked out at 3.6 nM.

Molecule `CC[C@@H](N(c1cc(F)c(C(=O)N[C@@H](Cc2ccc(-c3c(C(F)(F)F)cc(C)n(C)c3=O)c3ncccc23)C(=O)O)c(F)c1)C1CC1)C(F)(F)F` [Example 172] came in with an EC50 of 0.5 nM.

`COc1c(-c2ccc(C[C@H](NC(=O)c3c(F)cc(N4CCOC[C@H]4C(F)(F)F)cc3F)C(=O)O)c3cccnc23)c(=O)n(C)c2ccccc12` [Example 205] came in with an EC50 of 1.7 nM.

Turning to `Cc1nc(-c2ccc(C[C@H](NC(=O)c3c(F)cccc3F)C(=O)O)c3cccnc23)c(C(F)(F)F)c2ccccc12` [Example 318], a half-maximal response (EC50) required 14.3 nM.

In the case of `CCOCc1cc(OC)c(-c2ccc(C[C@H](NC(=O)c3c(Cl)cc4cc[nH]c4c3Cl)C(=O)O)c3cccnc23)c(OC)c1` [Example 219], the EC50 was 2.1 nM.

Take `CC[C@@H](Nc1cc(F)c(C(=O)N[C@@H](Cc2ccc(-c3nc(C)ccc3C(F)(F)F)c3ncccc23)C(=O)O)c(F)c1)C(F)(F)F` [Example 289]: the EC50 worked out at 6.5 nM.

As for `CC[C@@H](Nc1cc(F)c(C(=O)N[C@@H](Cc2ccc(-c3nccc(C)c3C(F)(F)F)c3ncccc23)C(=O)O)c(F)c1)C(F)(F)F` [Example 252], the EC50 turned out to be 3.1 nM.

`COc1cc(C)n(C)c(=O)c1-c1ccc(C[C@H](NC(=O)c2c(F)cc(N[C@H](C3CC3)C(F)(F)F)cc2F)C(=O)O)c2cccnc12` [Example 166] registered an EC50 of 0.4 nM.

Values taken from patent publication US11116760B2 (Gilead Sciences, Inc., priority 2018, dated 2021).
